Experimental data as given in PubChem BioAssay AID256 (DTP/NCI, 2004).
“And” between values parts separate entries of the source, which are not always exact repeats. Equal values may be shown once. Inconclusive results and toxic doses are left out. How the source made its calls: active means survival T/C of 150% or more; inactive means T/C below 125% in these data.

Test system: CD2F1 mice, L1210 leukemia ip, survival T/C
Assay: NCI In Vivo Anticancer Drug Screen. Data for tumor model L1210 Leukemia (intraperitoneal) in CD2F1 (CDF1) mice
Settings: higher = longer survival
Method in brief: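 Tumor-bearing mice (transplanted tumor) were split into treated and vehicle control groups, and the measured endpoint of each treated group was divided by that of its vehicle controls.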

[1] = endpoint: mean survival time, dose: 100.0 mg/kg/injection, schedule: Q04DX003 (ip), vehicle: saline with Tween-80
[2] = endpoint: mean survival time, dose: 200.0 mg/kg/injection, schedule: Q04DX003 (ip), vehicle: saline with Tween-80
[3] = endpoint: mean survival time, dose: 400.0 mg/kg/injection, schedule: Q04DX003 (ip), vehicle: saline with Tween-80
[4] = endpoint: mean survival time, dose: 100.0 mg/kg/injection, schedule: Q01DX009 (ip), vehicle: saline with Tween-80
[5] = endpoint: mean survival time, dose: 200.0 mg/kg/injection, schedule: Q01DX009 (ip), vehicle: saline with Tween-80
[6] = endpoint: mean survival time, dose: 400.0 mg/kg/injection, schedule: Q01DX009 (ip), vehicle: saline with Tween-80
[7] = endpoint: mean survival time, dose: 100.0 mg/kg/injection, schedule: Q04DX002 (ip), vehicle: saline with Tween-80
[8] = endpoint: mean survival time, dose: 200.0 mg/kg/injection, schedule: Q04DX002 (ip), vehicle: saline with Tween-80
[9] = endpoint: mean survival time, dose: 400.0 mg/kg/injection, schedule: Q04DX002 (ip), vehicle: saline with Tween-80
[10] = endpoint: mean survival time, dose: 100.0 mg/kg/injection, schedule: Q01DX001 (ip), vehicle: saline with Tween-80
[11] = endpoint: mean survival time, dose: 200.0 mg/kg/injection, schedule: Q01DX001 (ip), vehicle: saline with Tween-80
[12] = endpoint: mean survival time, dose: 400.0 mg/kg/injection, schedule: Q01DX001 (ip), vehicle: saline with Tween-80
[13] = endpoint: mean survival time, dose: 100.0 mg/kg/injection, schedule: Q04DX003 (ip), vehicle: Klucel (hydroxypropylcellulose) (HPC)
[14] = endpoint: mean survival time, dose: 200.0 mg/kg/injection, schedule: Q04DX003 (ip), vehicle: Klucel (hydroxypropylcellulose) (HPC)

Measured: T/C

CCN(Cc1ccccc1)c1ccc(SC#N)cc1
inactive: endpoint: mean survival time, dose: 100.0 mg/kg/injection, schedule: Q01DX001 (ip), vehicle: saline 100 % of control | endpoint: mean survival time, dose: 200.0 mg/kg/injection, schedule: Q01DX001 (ip), vehicle: saline 100 % of control | endpoint: mean survival time, dose: 400.0 mg/kg/injection, schedule: Q01DX001 (ip), vehicle: saline 93 % of control

O=C(c1ccccc1)c1c[nH]c2ccccc12
inactive: [1] 100 % of control | [2] 86 % of control | [3] 90 % of control

CSC(=C[N+](=O)[O-])SC
inactive: endpoint: mean survival time, dose: 25.0 mg/kg/injection, schedule: Q01DX009 (ip), vehicle: Klucel (hydroxypropylcellulose) (HPC) 97 % of control | endpoint: mean survival time, dose: 50.0 mg/kg/injection, schedule: Q01DX009 (ip), vehicle: Klucel (hydroxypropylcellulose) (HPC) 106 % of control

CC(C(=O)O)C(=O)O.[NH-]CC[NH-].[Pt+2]
inactive: endpoint: mean survival time, dose: 60.0 mg/kg/injection, schedule: Q04DX003 (ip), vehicle: water 116 % of control

C[n+]1cccc(/C=C/C(=O)Nc2ccccc2)c1
inactive: [1] 99 % of control | [2] 87 % of control

Nc1ccccc1CCc1ccccc1N
inactive: [1] 100 % of control | [2] 102 % of control | [3] 93 % of control

CC(C)(CC(=O)Nc1ccccc1)C(=O)O
inactive: [4] 98 % of control and 100 % of control | [5] 96 % of control and 100 % of control | [6] 96 % of control and 102 % of control

CNC(=O)Oc1coc(CCl)cc1=O
inactive: endpoint: mean survival time, dose: 25.0 mg/kg/injection, schedule: Q01DX009 (ip), vehicle: saline with Tween-80 98 % of control | endpoint: mean survival time, dose: 50.0 mg/kg/injection, schedule: Q01DX009 (ip), vehicle: saline with Tween-80 107 % of control | endpoint: mean survival time, dose: 50.0 mg/kg/injection, schedule: Q04DX003 (ip), vehicle: saline with Tween-80 97 % of control | [4] 101 % of control | [1] 101 % of control

Cc1c(C=NC(=O)c2ccccc2)c2ccccc2n1C
inactive: [7] 100 % of control | [8] 108 % of control | [9] 96 % of control

O=C1C=C(CCc2ccccc2)CCC1
inactive: [4] 107 % of control | [5] 107 % of control | [6] 108 % of control

CC(CCC(=O)O)C1CCC2C3C(O)CC4CC(O)CCC4(C)C3CC(O)C12C (stereo unspecified)
inactive: [10] 96 % of control | [11] 100 % of control | [12] 96 % of control

COC(=O)c1cn[nH]c1/N=N/N(C)C
active: endpoint: mean survival time, dose: 88.0 mg/kg/injection, schedule: Q01DX009 (ip), vehicle: other 175 % of control | endpoint: mean survival time, dose: 133.0 mg/kg/injection, schedule: Q01DX009 (ip), vehicle: other 164 % of control
inactive: endpoint: mean survival time, dose: 300.0 mg/kg/injection, schedule: Q01DX009 (ip), vehicle: other 88 % of control

Nc1nc(N)c2c(=O)c(CNc3ccc(C(=O)NC(CCC(=O)O)C(=O)O)cc3)c[nH]c2n1 (stereo unspecified)
inactive: endpoint: mean survival time, dose: 0.25 mg/kg/injection, schedule: Q01DX005 (ip), vehicle: sodium bicarbonate 104 % of control | endpoint: mean survival time, dose: 0.5 mg/kg/injection, schedule: Q01DX005 (ip), vehicle: sodium bicarbonate 119 % of control and 100 % of control | endpoint: mean survival time, dose: 1.0 mg/kg/injection, schedule: Q01DX005 (ip), vehicle: sodium bicarbonate 113 % of control and 100 % of control | endpoint: mean survival time, dose: 2.0 mg/kg/injection, schedule: Q01DX005 (ip), vehicle: sodium bicarbonate 98 % of control and 106 % of control | endpoint: mean survival time, dose: 4.0 mg/kg/injection, schedule: Q01DX005 (ip), vehicle: sodium bicarbonate 91 % of control and 104 % of control | endpoint: mean survival time, dose: 16.0 mg/kg/injection, schedule: Q01DX005 (ip), vehicle: sodium bicarbonate 98 % of control

O=C(Nc1ccc(NC(=O)c2ccccc2)c(Sc2ccccc2)c1Sc1ccccc1)c1ccccc1
inactive: [10] 89 % of control | [11] 89 % of control | [12] 86 % of control

CCCC[As](=O)(O)C(C)C
inactive: endpoint: mean survival time, dose: 2.7 mg/kg/injection, schedule: Q01DX009 (ip), vehicle: saline 93 % of control | endpoint: mean survival time, dose: 4.1 mg/kg/injection, schedule: Q01DX009 (ip), vehicle: saline 102 % of control | endpoint: mean survival time, dose: 5.5 mg/kg/injection, schedule: Q04DX003 (ip), vehicle: saline 100 % of control | endpoint: mean survival time, dose: 6.25 mg/kg/injection, schedule: Q01DX009 (ip), vehicle: saline 104 % of control | endpoint: mean survival time, dose: 8.2 mg/kg/injection, schedule: Q04DX003 (ip), vehicle: saline 104 % of control | endpoint: mean survival time, dose: 9.3 mg/kg/injection, schedule: Q01DX009 (ip), vehicle: saline 100 % of control | endpoint: mean survival time, dose: 11.0 mg/kg/injection, schedule: Q04DX002 (ip), vehicle: saline 106 % of control | endpoint: mean survival time, dose: 12.5 mg/kg/injection, schedule: Q04DX003 (ip), vehicle: saline 104 % of control | endpoint: mean survival time, dose: 14.0 mg/kg/injection, schedule: Q01DX009 (ip), vehicle: saline 93 % of control | endpoint: mean survival time, dose: 16.0 mg/kg/injection, schedule: Q04DX002 (ip), vehicle: saline 113 % of control | endpoint: mean survival time, dose: 18.0 mg/kg/injection, schedule: Q04DX003 (ip), vehicle: saline 100 % of control | endpoint: mean survival time, dose: 22.0 mg/kg/injection, schedule: Q01DX001 (ip), vehicle: saline 104 % of control | endpoint: mean survival time, dose: 25.0 mg/kg/injection, schedule: Q04DX002 (ip), vehicle: saline 100 % of control | endpoint: mean survival time, dose: 28.0 mg/kg/injection, schedule: Q04DX003 (ip), vehicle: saline 102 % of control | endpoint: mean survival time, dose: 35.0 mg/kg/injection, schedule: Q01DX001 (ip), vehicle: saline 102 % of control | endpoint: mean survival time, dose: 35.0 mg/kg/injection, schedule: Q04DX002 (ip), vehicle: saline 111 % of control | endpoint: mean survival time, dose: 50.0 mg/kg/injection, schedule: Q01DX001 (ip), vehicle: saline 104 % of control | endpoint: mean survival time, dose: 55.0 mg/kg/injection, schedule: Q04DX002 (ip), vehicle: saline 95 % of control | endpoint: mean survival time, dose: 75.0 mg/kg/injection, schedule: Q01DX001 (ip), vehicle: saline 111 % of control

O=Cc1cc(=O)[nH]c2ccccc12
inactive: [1] 96 % of control | [2] 98 % of control | [3] 100 % of control

CCOC(=O)CCN(CCC(=O)OCC)Cc1ccccc1
inactive: [7] 112 % of control | [8] 100 % of control | [9] 103 % of control

CC(=O)OCC1OC(n2ccc(O)cc2=O)C(OC(C)=O)C1OC(C)=O (stereo unspecified)
active: endpoint: median survival time, dose: 44.0 mg/kg/injection, schedule: Q01DX009 (ip), vehicle: saline + alcohol 154 % of control | endpoint: median survival time, dose: 67.0 mg/kg/injection, schedule: Q01DX009 (ip), vehicle: saline + alcohol 164 % of control | endpoint: median survival time, dose: 100.0 mg/kg/injection, schedule: Q01DX009 (ip), vehicle: saline + alcohol 174 % of control | endpoint: median survival time, dose: 150.0 mg/kg/injection, schedule: Q01DX009 (ip), vehicle: saline + alcohol 165 % of control

Nc1nc2c(ncn2-c2cccc(NC(=O)c3cccc(S(=O)(=O)F)c3)c2)c(=O)[nH]1
inactive: endpoint: mean survival time, dose: 50.0 mg/kg/injection, schedule: Q04DX002 (ip), vehicle: saline with Tween-80 108 % of control | [7] 94 % of control | [8] 90 % of control

CCOC(=O)c1cnc2c(cnn2CC)c1OCc1ccccc1
inactive: [13] 101 % of control | [14] 104 % of control | endpoint: mean survival time, dose: 400.0 mg/kg/injection, schedule: Q04DX003 (ip), vehicle: Klucel (hydroxypropylcellulose) (HPC) 108 % of control

COc1ccc2c(c1O)C1=CC(=O)CCC13CCN(C)C3C2 (stereo unspecified)
inactive: endpoint: mean survival time, dose: 100.0 mg/kg/injection, schedule: Q01DX009 (ip), vehicle: saline 103 % of control | endpoint: mean survival time, dose: 200.0 mg/kg/injection, schedule: Q01DX009 (ip), vehicle: saline 96 % of control

CC(=[C-]C(=O)O)C(=O)O.[NH-]C1CCCCC1[NH-].[Pt]
inactive: endpoint: median survival time, dose: 6.25 mg/kg/injection, schedule: Q04DX003 (ip), vehicle: saline 100 % of control | endpoint: median survival time, dose: 12.5 mg/kg/injection, schedule: Q04DX003 (ip), vehicle: saline 100 % of control | endpoint: median survival time, dose: 25.0 mg/kg/injection, schedule: Q04DX003 (ip), vehicle: saline 102 % of control | endpoint: median survival time, dose: 50.0 mg/kg/injection, schedule: Q04DX003 (ip), vehicle: saline 108 % of control | endpoint: median survival time, dose: 100.0 mg/kg/injection, schedule: Q04DX003 (ip), vehicle: saline 112 % of control

O=C1NC(=O)C2CC(Br)C(Br)CC12 (stereo unspecified)
inactive: endpoint: mean survival time, dose: 5.0 mg/kg/injection, schedule: Q01DX001 (ip), vehicle: saline 103 % of control | endpoint: mean survival time, dose: 10.0 mg/kg/injection, schedule: Q01DX001 (ip), vehicle: saline 101 % of control | endpoint: mean survival time, dose: 20.0 mg/kg/injection, schedule: Q01DX001 (ip), vehicle: saline 100 % of control

O=C1c2ccccc2-c2cc([N+](=O)[O-])c(Cl)cc21
inactive: endpoint: mean survival time, dose: 50.0 mg/kg/injection, schedule: Q04DX003 (ip), vehicle: Klucel (hydroxypropylcellulose) (HPC) 91 % of control | [13] 96 % of control | [14] 94 % of control
